Assay results reported in US11541028B2, “Peptide pharmaceuticals for treatment of NASH and other disorders” (Mederis Diabetes LLC, priority 2018, dated 2023).
Numbered stars: 1 amine (or outer) side, 2 acyl side, 3 side chain; on linkers, the order of the positions; unused ones are H or OH. Bridge positions count the residues as written; N and C are the ends. Square brackets hold non-standard residues; d marks the D form. Side chains are listed from the residue outwards. Peptide text beside a SMILES is read from it. * marks the point of attachment. Melibiouronoyl(1β-O-dodecyl) = CCCCCCCCCCCCO[C@@H]1O[C@H](CO[C@H]2O[C@H](C(=O)*)[C@H](O)[C@H](O)[C@H]2O)[C@@H](O)[C@H](O)[C@H]1O; βGlcA(1-O-hexadecyl) = CCCCCCCCCCCCCCCCO[C@@H]1O[C@H](C(=O)*)[C@@H](O)[C@H](O)[C@H]1O; GlcA(1β-O-tetradecyl) = CCCCCCCCCCCCCCO[C@@H]1O[C@H](C(=O)*)[C@@H](O)[C@H](O)[C@H]1O; εLys = N[C@@H](CCCCN[*:1])C(=O)[*:2]; Aib = CC(C)(N)C(=O)O

Columns and labels:
[1] = molecular target: T1, human glucagon receptor (Homo sapiens, UniProt P47871); assay: DiscoveRx LeadHunter cellular assay, cAMP stimulation, glucagon receptor in CHO cells; assay type: cell-based
T1 construct: host or cells: CHO cells
T1 sequence (P47871 26-477): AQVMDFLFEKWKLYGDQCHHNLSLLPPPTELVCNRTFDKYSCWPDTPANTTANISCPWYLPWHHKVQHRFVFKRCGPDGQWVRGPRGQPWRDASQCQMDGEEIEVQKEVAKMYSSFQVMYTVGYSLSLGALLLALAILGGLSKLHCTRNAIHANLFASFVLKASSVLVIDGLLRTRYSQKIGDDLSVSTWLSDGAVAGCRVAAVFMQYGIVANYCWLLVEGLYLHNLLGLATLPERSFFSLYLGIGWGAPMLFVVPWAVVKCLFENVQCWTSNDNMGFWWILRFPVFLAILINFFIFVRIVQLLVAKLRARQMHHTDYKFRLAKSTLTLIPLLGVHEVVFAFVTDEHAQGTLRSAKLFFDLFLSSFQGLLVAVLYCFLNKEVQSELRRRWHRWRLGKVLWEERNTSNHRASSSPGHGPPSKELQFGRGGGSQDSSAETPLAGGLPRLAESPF
Protocol: (§1) A further series of cellular assays was carried out with standard cellular assays (DiscoveRx, LeadHunter assays) using readout of cAMP stimulation or arrestin activation. Compounds were weighed precisely in an amount of about 1 mg and shipped to DiscoveRx for dilution and assay.

[2] = molecular target: T2, human GLP-1 receptor (Homo sapiens, UniProt P43220); assay: DiscoveRx LeadHunter cellular assay, cAMP stimulation, GLP-1 receptor in CHO cells; assay type: cell-based; conditions: human GLP-1 receptor in CHO cells (DiscoveRx); read-out: EC50 cAMP GLP-1 R
T2 construct: host or cells: CHO cells
T2 sequence (P43220 24-463): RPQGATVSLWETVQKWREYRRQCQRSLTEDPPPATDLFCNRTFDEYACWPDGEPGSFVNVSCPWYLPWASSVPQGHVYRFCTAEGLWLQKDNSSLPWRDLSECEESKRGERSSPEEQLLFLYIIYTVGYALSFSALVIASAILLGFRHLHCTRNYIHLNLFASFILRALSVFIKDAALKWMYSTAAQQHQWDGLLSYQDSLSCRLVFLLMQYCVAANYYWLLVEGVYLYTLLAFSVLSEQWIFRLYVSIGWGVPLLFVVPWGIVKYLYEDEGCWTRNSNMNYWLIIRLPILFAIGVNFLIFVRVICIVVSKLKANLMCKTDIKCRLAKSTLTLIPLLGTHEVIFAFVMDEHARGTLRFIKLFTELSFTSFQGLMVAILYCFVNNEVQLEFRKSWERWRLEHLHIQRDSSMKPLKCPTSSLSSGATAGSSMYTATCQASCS
Protocol: as §1

Row | SMILES | EC50 [1] [nM] | EC50 [2] [nM]
1 | CCCCCCCCCCCCCCCCO[C@H]1O[C@H](CO[C@H]2O[C@H](C(=O)NCCCC[C@H](NC(=O)[C@@H](NC(=O)[C@H](Cc3ccccc3)NC(=O)[C@H](CCC(=O)O)NC(=O)[C@@H]3CCCCNC(=O)CC[C@H](NC(=O)[C@H](CC(=O)O)NC(=O)[C@H](CC(C)C)NC(=O)[C@H](Cc4ccc(O)cc4)NC(=O)[C@H](CCCCN)NC(=O)[C@H](CO)NC(=O)[C@H](Cc4ccc(O)cc4)NC(=O)[C@H](CC(=O)O)NC(=O)[C@H](CO)NC(=O)[C@@H](NC(=O)[C@H](Cc4ccccc4)NC(=O)[C@@H](NC(=O)CNC(=O)[C@H](CCC(N)=O)NC(=O)C(C)(C)NC(=O)[C@@H](N)Cc4c[nH]cn4)[C@@H](C)O)[C@@H](C)O)C(=O)N[C@@H](CCC(N)=O)C(=O)N[C@@H](C)C(=O)N[C@@H](C)C(=O)N3)[C@@H](C)CC)C(=O)N[C@@H](Cc3c[nH]c4ccccc34)C(=O)N[C@@H](CC(C)C)C(=O)N[C@@H](CC(C)C)C(=O)N[C@@H](CCC(N)=O)C(=O)N[C@H](C(N)=O)[C@@H](C)O)[C@H](O)[C@H](O)[C@H]2O)[C@@H](O)[C@H](O)[C@H]1O [EU-A1173] | 0.463 | 0.021
2 | CCCCCCCCCCCCO[C@@H]1O[C@H](CO[C@H]2O[C@H](C(=O)NCCCC[C@H](NC(=O)[C@@H](NC(=O)[C@H](Cc3ccccc3)NC(=O)[C@H](CCC(=O)O)NC(=O)[C@@H]3CCCCNC(=O)CC[C@H](NC(=O)[C@H](CC(=O)O)NC(=O)[C@H](CC(C)C)NC(=O)[C@H](Cc4ccc(O)cc4)NC(=O)[C@H](CCCCN)NC(=O)[C@H](CO)NC(=O)[C@H](Cc4ccc(O)cc4)NC(=O)[C@H](CC(=O)O)NC(=O)[C@H](CO)NC(=O)[C@@H](NC(=O)[C@H](Cc4ccccc4)NC(=O)[C@@H](NC(=O)CNC(=O)[C@H](CCC(N)=O)NC(=O)C(C)(C)NC(=O)[C@@H](N)Cc4c[nH]cn4)[C@@H](C)O)[C@@H](C)O)C(=O)N[C@@H](CCC(=O)O)C(=O)N[C@@H](C)C(=O)N[C@@H](C)C(=O)N3)[C@@H](C)CC)C(=O)N[C@@H](Cc3c[nH]c4ccccc34)C(=O)N[C@@H](CC(C)C)C(=O)N[C@@H](CC(C)C)C(=O)N[C@@H](CCC(N)=O)C(=O)N[C@H](C(=O)O)[C@@H](C)O)[C@H](O)[C@H](O)[C@H]2O)[C@@H](O)[C@H](O)[C@H]1O [EU-A1581] (H-H[Aib]QGTFTSDYSKYLDEEAAKEFIK(Melibiouronoyl(1β-O-dodecyl))WLLQT-OH; lactam 16-20; N-terminus assumed) | 1.03 | 0.086
3 | CCCCCCCCCCCCCCCCO[C@@H]1O[C@H](C(=O)NCCCC[C@H](NC(=O)[C@@H](NC(=O)[C@H](Cc2ccccc2)NC(=O)[C@H](CCC(=O)O)NC(=O)[C@@H]2CCCCNC(=O)CC[C@H](NC(=O)[C@H](CC(=O)O)NC(=O)[C@H](CC(C)C)NC(=O)[C@H](Cc3ccc(O)cc3)NC(=O)[C@H](CCCCN)NC(=O)[C@H](CO)NC(=O)[C@H](Cc3ccc(O)cc3)NC(=O)[C@H](CC(=O)O)NC(=O)[C@H](CO)NC(=O)[C@@H](NC(=O)[C@H](Cc3ccccc3)NC(=O)[C@@H](NC(=O)CNC(=O)[C@H](CCC(N)=O)NC(=O)C(C)(C)NC(=O)[C@@H](N)Cc3c[nH]cn3)[C@@H](C)O)[C@@H](C)O)C(=O)N[C@@H](CCC(N)=O)C(=O)N[C@@H](C)C(=O)N[C@@H](C)C(=O)N2)[C@@H](C)CC)C(=O)N[C@@H](Cc2c[nH]c3ccccc23)C(=O)N[C@@H](CC(C)C)C(=O)N[C@@H](CC(C)C)C(=O)N[C@@H](CCC(N)=O)C(=O)N[C@H](C(=O)NCCOCCOCCOCCOCCC(=O)O)[C@@H](C)O)[C@@H](O)[C@H](O)[C@H]1O [EU-A1635] | 1.98 | 0.071
4 | CCCCCCCCCCCCCCO[C@@H]1O[C@H](C(=O)NCCCC[C@H](NC(=O)[C@H](C)NC(=O)[C@H](C)NC(=O)[C@H](CCC(N)=O)NC(=O)[C@H](CO)NC(=O)[C@H](CC(=O)O)NC(=O)[C@@H]2CCCCNC(=O)CC[C@H](NC(=O)[C@H](CC(=O)O)NC(=O)[C@H](CO)NC(=O)[C@@H](NC(=O)[C@H](Cc3ccccc3)NC(=O)[C@@H](NC(=O)CNC(=O)[C@H](CCC(N)=O)NC(=O)C(C)(C)NC(=O)[C@@H](N)Cc3c[nH]cn3)[C@@H](C)O)[C@@H](C)O)C(=O)N[C@@H](CO)C(=O)N[C@@H](CCCCN)C(=O)N[C@@H](Cc3ccc(O)cc3)C(=O)N2)C(=O)N[C@@H](CCC(=O)O)C(=O)N[C@@H](Cc2ccccc2)C(=O)N[C@H](C(=O)N[C@@H](CCC(=O)O)C(=O)N[C@@H](Cc2c[nH]c3ccccc23)C(=O)N[C@@H](CC(C)C)C(=O)N[C@@H](CC(C)C)C(=O)N[C@@H](CCC(N)=O)C(=O)N[C@H](C(N)=O)[C@@H](C)O)[C@@H](C)CC)[C@@H](O)[C@H](O)[C@H]1O [EU-A1847] (H-H[Aib]QGTFTSDESKYKDSQAAK(GlcA(1β-O-tetradecyl))EFIEWLLQT-NH2; lactam 10-14; N-terminus assumed) | 1.95 | 0.032
5 | CCCCCCCCCCCCCCCCO[C@@H]1O[C@H](C(=O)NCCCC[C@H](N)C(=O)NCCCC[C@H](NC(=O)[C@H](C)NC(=O)[C@H](C)NC(=O)[C@H](CCC(N)=O)NC(=O)[C@@H]2CCCCNC(=O)CC[C@H](NC(=O)[C@H](CO)NC(=O)[C@H](Cc3ccc(O)cc3)NC(=O)[C@H](CC(=O)O)NC(=O)[C@H](CO)NC(=O)[C@@H](NC(=O)[C@H](Cc3ccccc3)NC(=O)[C@@H](NC(=O)CNC(=O)[C@H](CCC(N)=O)NC(=O)C(C)(C)NC(=O)[C@@H](N)Cc3c[nH]cn3)[C@@H](C)O)[C@@H](C)O)C(=O)N[C@@H](Cc3ccc(O)cc3)C(=O)N[C@@H](CC(C)C)C(=O)N[C@@H](CC(=O)O)C(=O)N2)C(=O)N[C@@H](CCC(=O)O)C(=O)N[C@@H](Cc2ccccc2)C(=O)N[C@H](C(=O)N[C@@H](CCC(N)=O)C(=O)N[C@@H](Cc2c[nH]c3ccccc23)C(=O)N[C@@H](CC(C)C)C(=O)N[C@@H](CC(C)C)C(=O)N[C@@H](CCC(N)=O)C(=O)N[C@H](C(N)=O)[C@@H](C)O)[C@@H](C)CC)[C@@H](O)[C@H](O)[C@H]1O [EU-A1785] (H-H[Aib]QGTFTSDYSEYLDKQAAK([εLys-βGlcA(1-O-hexadecyl)])EFIQWLLQT-NH2; lactam 12-16; N-terminus assumed) | 5.14 | 0.239
6 | CCCCCCCCCCCCO[C@@H]1O[C@H](CO[C@H]2O[C@H](C(=O)N[C@@H](CCC(=O)NCCCC[C@H](NC(=O)[C@@H](NC(=O)[C@H](Cc3ccccc3)NC(=O)[C@H](CCC(=O)O)NC(=O)[C@@H]3CCCCNC(=O)CC[C@H](NC(=O)[C@H](CC(=O)O)NC(=O)[C@H](CC(C)C)NC(=O)[C@H](Cc4ccc(O)cc4)NC(=O)[C@H](CCCCN)NC(=O)[C@H](CO)NC(=O)[C@H](Cc4ccc(O)cc4)NC(=O)[C@H](CC(=O)O)NC(=O)[C@H](CO)NC(=O)[C@@H](NC(=O)[C@H](Cc4ccccc4)NC(=O)[C@@H](NC(=O)CNC(=O)[C@H](CCC(N)=O)NC(=O)C(C)(C)NC(=O)[C@@H](N)Cc4c[nH]cn4)[C@@H](C)O)[C@@H](C)O)C(=O)N[C@@H](CCC(N)=O)C(=O)N[C@@H](C)C(=O)N[C@@H](C)C(=O)N3)[C@@H](C)CC)C(=O)N[C@@H](Cc3c[nH]c4ccccc34)C(=O)N[C@@H](CC(C)C)C(=O)N[C@@H](CC(C)C)C(=O)N[C@@H](CCC(N)=O)C(=O)N[C@H](C(N)=O)[C@@H](C)O)C(=O)O)[C@H](O)[C@H](O)[C@H]2O)[C@@H](O)[C@H](O)[C@H]1O [EU-A1606] | 0.058 | 0.017
